Measurements: US10869928B2, “Lyophilized preparation of cytotoxic dipeptides” (ONCOPEPTIDES AB, priority 2011, dated 2020)
Counter-ions that a name gives are not always drawn.

Experiments:
[1] = Determination of dissolution rate (Example 5); assay type: physicochemical; conditions: Solution: 5% glucose + Polysorbate 80
Protocol: A 5% glucose solution was added to each plastic vial containing J1. The vials were shaken and filtered at different time-points. The filtrate was transferred to glass vials and the amount of dissolved J1 was determined by HPLC.

[2] = Stability in aqueous solutions; assay type: physicochemical
[3] = Stability of melphalan flufenamide dissolved in DMA in a glucose solution; conditions: dissolved in DMA (dimethylacetamide) in a glucose solution

| Structure (SMILES) | Time (min) to reach steady state dissolution [1] | hydrolysis in water ([2]; water) | degradation [3] | times more stable in aqueous solutions compared to J1 ([2]; aqueous solutions, relative to J1) |
| --- | --- | --- | --- | --- |
| CCOC(=O)[C@H](Cc1ccc(F)cc1)NC(=O)[C@@H](N)Cc1ccc(N(CCCl)CCCl)cc1 [Experiment J1, melphalanyl-L-p-fluorophenylalanine ethyl ester hydrochloride] | 1 to 2 min | quickly hydrolyzed | 7 % degradation/h | – |
| N[C@@H](Cc1ccc(N(CCCl)CCCl)cc1)C(=O)O [Melphalan, p-[bis-(2-chloroethyl)amino]phenylalanine, reference compound] | – | – | – | 10,000 times |
